As a reminder, the IC50 is the concentration that gives 50% inhibition.

Among the data in patent US7208509B2, “Non-nucleoside reverse transcriptase inhibitors” (Roche Palo Alto LLC, priority 2003, dated 2007) are IC50 values, retold here.

For this assay, the target named is HIV-1 RT (Human immunodeficiency virus type 1 group M subtype B, UniProt P03366). The experiment in a line: HIV Reverse Transcriptase Assay: Inhibitor IC50 Determination. The class given is biochemical. Conditions: purified recombinant enzyme, poly(rA)/oligo(dT)16 template-primer, [3H] dTTP, 37° C. for 30 min; read-out: RT inhibition IC50. As for the experimental part:
HIV Reverse Transcriptase Assay: Inhibitor IC50 Determination
HIV-1 RT assay was carried out in 96-well Millipore MultiScreen MADVNOB50 plates using purified recombinant enzyme and a poly(rA)/oligo(dT)16 template-primer in a total volume of 50 μL. The assay constituents were 50 mM Tris/HCl, 50 mM NaCl, 1 mM EDTA, 6 mM MgCl2, 5 μM dTTP, 0.15 μCi [^3H] dTTP, 5 μg/ml poly (rA) pre annealed to 2.5 μg/ml oligo (dT)16 and a range of inhibitor concentrations in a final concentration of 10% DMSO. Reactions were initiated by adding 4 nM HIV-1 RT and after incubation at 37° C. for 30 min, they were stopped by the addition of 50 μl ice cold 20% TCA and allowed to precipitate at 4° C. for 30 min. The precipitates were collected by applying vacuum to the plate and sequentially washing with 3×200 μl of 10% TCA and 2×200 μl 70% ethanol. Finally, the plates were dried and radioactivity counted in a Packard TopCounter after the addition of 25 μl scintillation fluid per well. IC50's were calculated by plotting % inhibition versus log10 inhibitor concentrations.
In the case of `CCn1c(Cc2ccc(Cl)c(Oc3ccccc3Cl)c2)n[nH]c1=O` [Compound 7, 5-[4-Chloro-3-(2-chloro-phenoxy)-benzyl]-4-ethyl-2,4-dihydro-[1,2,4]triazol-3-one], the IC50 was 447 nM. Next, `O=c1[nH]nc(Cc2ccc(Cl)c(Oc3ccccc3Cl)c2)s1` [Compound 4, 5-[4-Chloro-3-(2-chloro-phenoxy)-benzyl]-3H-[1,3,4]thiadiazol-2-one]: 195 nM. For the compound `Cn1c(Cc2ccc(Cl)c(Oc3cccc(Cl)c3)c2)n[nH]c1=O` [Compound 8, 5-[4-Chloro-3-(3-chloro-phenoxy)-benzyl]-4-methyl-2,4-dihydro-[1,2,4]triazol-3-one], the IC50 came to 286 nM. The value for `CCn1c(Cc2ccc(Cl)c(Oc3cccc(Cl)c3)c2)n[nH]c1=O` [Compound 9, 5-[4-Chloro-3-(3-chloro-phenoxy)-benzyl]-4-ethyl-2,4-dihydro-[1,2,4]triazol-3-one] was 444 nM.
